From patent US10342758B2, “Cationic lipid” (Kyowa Hakko Kirin Co., Ltd., priority 2012, dated 2019)

Legend:
[1] = Average particle diameter of preparation (Zetasizer Nano ZS); assay type: physicochemical; settings: preparation with apo-b siRNA; compound/PEG-DMPE Na/DSPC/cholesterol; Example 49 / Comparative Example 1
[2] = as above; assay type: physicochemical; settings: preparation with f7 siRNA
Description: The average particle diameter of each preparation (composition) was measured using a particle diameter measurement device (Zetasizer Nano ZS, manufactured by Malvern, hereafter the same).
The average particle diameter of each preparation (composition) was measured using a particle diameter measurement device.
Each sample was weighed and suspended in an aqueous solution containing hydrochloric acid and ethanol so that the ratio of Compound A-1/PEG-DMPE Na (manufactured by NOF Corporation) was 57.3/5.52 mmol/L, and then, the resulting mixture was repeatedly subjected to stirring using a vortex stirring mixer and heating, whereby a uniform suspension was obtained. This suspension was passed through a 0.2-μm polycarbonate membrane filter and thereafter passed through a 0.05-μm polycarbonate membrane filter at room temperature, whereby a dispersion liquid of particles (liposome) of Compound A-1/PEG-DMPE Na was obtained. The average particle diameter of the obtained liposome was measured using a particle diameter measuring apparatus to confirm that the average particle diameter was within the range from 30 nm to 100 nm. In the obtained dispersion liquid of liposome, the f7 siRNA solution was mixed at a ratio of the dispersion liquid of liposome to the fl siRNA solution of 3:1, and then, distilled water that was three times the amount was added thereto and mixed therewith, whereby a dispersion liquid of Compound A-1/PEG-DMPE Na/f7 siRNA complex was prepared.
The average particle diameter of the preparation (composition) was measured using a particle diameter measurement device.

apo-b gene mRNA = experiment: Expression ratio of apo-b mRNA after introduction of preparations into HepG2 cells; assay type: cell-based, human; settings: nucleic acid 3 to 100 nM, 24 hours, composition with apo-b siRNA (FIG. 1)
Excerpt: Each of the preparation: obtained in Example 49 (the compositions containing any of Compounds A-1, and A-3 to A-5, and the nucleic acid) and the preparations obtained in Comparative Example 1 (the compositions containing any of DLin-KC2-DMA and Compounds XI-1 to XI-3, and the nucleic acid) was introduced into cells of human liver cancer-derived cell line HepG2 (HB-8065) by the following method.
Each preparation diluted with Opti-MEM (GIBCO Co., Ltd., 31985) so that the final concentration of the nucleic acid was 3 to 100 nM was dispensed in a 96-well culture plate at 20 μL/well. […]
By using the obtained cDNA as a template and also using a universal probe library (Roche Applied Science, Inc., 04683633001) as the probe and ABI7900HT Fast (manufactured by ABI, Inc.), a PCR reaction was performed according to the method described in the protocol attached thereto, so that the apo-b gene and D-glyceraldehyde-3-phosphate dehydrogenase (hereinafter, represented by “gapdh”) gene, which is a constitutively expressed gene, were subjected to the PCR reaction. Then, the amount of the amplified mRNA was measured for each gene, and a quasi-quantitative value of the apo-b mRNA was calculated using the amount of the amplified gapdh mRNA as the internal control. […]

[3] = compound/PEG-DMPE Na/DSPC/cholesterol, Examples 50, 51 / Comparative Example 2
[4] = liposome/siRNA complex encapsulated by lipid membrane, Examples 52, 53 / Comparative Example 3

Structure (SMILES)	Particle diameter of Preparation obtained [2, 3]	Particle diameter of Preparation obtained [2, 4]	further results
CCCCCC/C=C\CCCCCCCCN(CCCCCCCC/C=C\CCCCCC)C(=O)OCCCN(C)C [Compound A-3, 3-(Dimethylamino)propyl di(Z)-hexadec-9-enyl) carbamate]			Particle diameter of Preparation obtained [1]: 150.0 nm
CCCCC/C=C\C/C=C\CCCCCCCCN(CCO)CCCCCCCC/C=C\C/C=C\CCCCC [Compound C-4, 2-(Di((9Z,12Z)-octadeca-9,12-dienyl)amino)ethanol]	137.3 nm	98.8 nm	
CCCCC/C=C\C/C=C\CCCCCCCCN(CCCCCCCC/C=C\C/C=C\CCCCC)C(=O)CCCCN(C)C [Compound XI-2, 5-(Dimethylamino)-N,N-di((9Z,12Z)-octadeca-9,12-dienyl)pentanamide]			expression of the apo-b gene mRNA (apo-b gene mRNA): did not suppress the expression of the apo-b gene mRNA
CCCCC/C=C\C/C=C\CCCCCCCCOCC(CN(C)C(=O)OCCCN(C)C)OCCCCCCCC/C=C\C/C=C\CCCCC (stereo not shown) [Compound XI-9, 3-(Dimethylamino)propyl 2,3-bis((9Z,12Z)-octadeca-9,12-dienyloxy)propyl(methyl)carbamate, reference compound]		116.2 nm	

Now from value to compound, other results behind:

Particle diameter of Preparation obtained [2, 3]	Particle diameter of Preparation obtained [2, 4]	Structure (SMILES)	further results
134.9 nm	96.4 nm	CCCCC/C=C\C/C=C\CCCCCCCCN(CCCCO)CCCCCCCC/C=C\C/C=C\CCCCC [Compound C-5, 4-(Di((9Z,12Z)-octadeca-9,12-dienyl)amino)butan-1-ol]	
114.1 nm		CCCCC/C=C\C/C=C\CCCCCCCCOCCN(CCOCCCCCCCC/C=C\C/C=C\CCCCC)C(=O)OCCCN(C)C [Compound XI-5, 3-(Dimethylamino)propyl bis(2-((9Z,12Z)-octadeca-9,12-dienyloxy)ethyl)carbamate, reference compound]	
142.8 nm		CCCCC/C=C\C/C=C\CCCCCCCCN(CCCCCCCC/C=C\C/C=C\CCCCC)CC(O)CO (stereo not shown) [Compound XI-7, 3-(Di((9Z,12Z)-octadeca-9,12-dienyl)amino)propane-1,2-diol, reference compound]	
128.0 nm		CCCCC/C=C\C/C=C\CCCCCCCCO[C@@H]1CN(CCCO)C[C@H]1OCCCCCCCC/C=C\C/C=C\CCCCC [Compound XI-8, 3-((3R,4R)-3,4-Bis((9Z,12Z)-octadeca-9,12-dienyloxy)pyrrolidin-1-yl)propan-1-ol, reference compound]	
